The values that follow come from patent US20040106626A1, “6-Membered unsaturated heterocyclic compounds useful for selective inhibition of the coagulation cascade” (Pharmacia Corporation, priority 2001, published 2004).

Common to all, as to type: biochemical
Test [1] addresses T1, recombinant soluble tissue factor and recombinant human factor VIIa (TF-VIIa) (Homo sapiens, UniProt P08709).
T1 construct: conversion of coagulation factor VII to VIIa by factor Xa; purchased American Diagnostica, Greenwich CT; host or cells: soluble TF made in house in E. coli
In words: TF-VIIa assay (chromogenic substrate hydrolysis). To be noted: reported only as less than or greater than 0.1 uM. In a few lines: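 Chromogenic read at OD405, compared with control for percent inhibition. Substrate N-methylsulfonyl-D-phe-gly-arg-p-nitroaniline at 0.4 mM is cleaved by recombinant human VIIa (2 nM) complexed with soluble TF (100 nM). Buffer: pH 8.0 Tris-HCl 50 mM, CaCl2 5 mM, NaCl 100 mM, BSA 0.1%.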

Test [2] has as its target T2, Human factor Xa (Homo sapiens, UniProt P00742).
T2 construct: purchased Enzyme Research Laboratories, South Bend Ind
In words: Xa assay (chromogenic substrate S-2765). To be noted: reported only as less than or greater than 30 uM; read-out: Factor Xa (II) IC50. The essentials:
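Chromogenic readout: S-2765 hydrolysis (0.15 mM) by 0.3 nM human FXa was monitored at 405 nm after 60 min at room temperature, with a time-zero background read. Buffer: 50 mM Tris-HCl, pH 8.0, 100 mM NaCl, 0.1% BSA. Inhibition is relative to buffer-only controls.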

Test [3] addresses T3, Human thrombin (Homo sapiens, UniProt P00734).
T3 construct: converts prothrombin (II) to thrombin (IIa); purchased Calbiochem, La Jolla, Calif
In words: Thrombin assay (chromogenic substrate). To be noted: reported only as less than or greater than 30 uM; read-out: Thrombin (II) IC50. In a few lines: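 Percent inhibition derived by comparing OD405 nm of compound-treated and control samples. Thrombin cleavage of a p-nitroanilide chromogenic substrate provides the signal.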

Test [4] deals with Normal human pooled plasma. In words: Prothrombin time (PT) clotting assay. The following applies: concentration at which prothrombin time is prolonged by 2x normal, reported as less than or greater than 50 uM. As to the method: The prothrombin time (PT) assay is a clotting assay that is used to determine deficiencies of clotting factor activity in the extrinsic pathway. The assay measures time to clotting after the addition of thromboplastin (human tissue factor). Normal human pooled plasma is incubated with 100 uM compound or saline in a coagulation machine. Thromboplastin is added and time to clotting is measured. Compounds with greater than 3×normal PT of 11.0 seconds are further analyzed by concentration response to determine at what concentration the prothrombin time is prolonged by 2×normal.

T1 sequence (P08709 213-466 limits assumed): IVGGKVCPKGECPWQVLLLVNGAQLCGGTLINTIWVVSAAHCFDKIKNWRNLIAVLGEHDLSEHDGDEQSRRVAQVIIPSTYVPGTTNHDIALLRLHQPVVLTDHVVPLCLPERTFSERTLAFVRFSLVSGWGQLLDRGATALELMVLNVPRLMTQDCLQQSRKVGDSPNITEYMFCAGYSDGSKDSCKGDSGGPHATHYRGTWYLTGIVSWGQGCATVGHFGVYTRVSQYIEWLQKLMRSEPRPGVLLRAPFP
T1 sequence (P08709 61-212 limits assumed): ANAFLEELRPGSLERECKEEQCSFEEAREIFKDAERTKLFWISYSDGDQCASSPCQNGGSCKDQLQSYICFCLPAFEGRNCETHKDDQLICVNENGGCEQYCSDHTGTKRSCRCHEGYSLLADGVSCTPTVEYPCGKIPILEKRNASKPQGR
T1 sequence (P13726 33-251 partner limits assumed): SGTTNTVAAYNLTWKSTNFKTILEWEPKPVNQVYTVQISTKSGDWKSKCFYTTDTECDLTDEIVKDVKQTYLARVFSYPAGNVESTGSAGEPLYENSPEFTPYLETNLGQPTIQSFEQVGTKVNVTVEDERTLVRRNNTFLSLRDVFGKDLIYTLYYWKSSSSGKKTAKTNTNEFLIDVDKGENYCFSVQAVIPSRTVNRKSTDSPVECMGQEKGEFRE
T2 sequence (P00742 235-488 limits assumed): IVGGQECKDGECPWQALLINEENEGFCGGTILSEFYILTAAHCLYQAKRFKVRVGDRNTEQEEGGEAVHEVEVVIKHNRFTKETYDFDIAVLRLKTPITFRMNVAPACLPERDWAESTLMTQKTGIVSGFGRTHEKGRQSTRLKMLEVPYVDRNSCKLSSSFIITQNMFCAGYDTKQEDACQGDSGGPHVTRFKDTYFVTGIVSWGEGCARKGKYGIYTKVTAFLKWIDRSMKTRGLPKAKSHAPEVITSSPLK
T2 sequence (P00742 41-179 limits assumed): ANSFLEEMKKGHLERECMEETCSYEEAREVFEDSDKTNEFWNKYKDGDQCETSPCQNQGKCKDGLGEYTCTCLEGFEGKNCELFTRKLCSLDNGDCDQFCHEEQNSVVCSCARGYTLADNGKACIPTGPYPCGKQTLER

One may read the IC50 as the point on the concentration scale where inhibition reaches its midpoint. For the compound `CC(C)Nc1ncc(-c2cc(N)cc(C(F)(F)F)c2)n(CC(=O)NCc2ccc(C(=N)N)s2)c1=O` [Example 67], the results for the IC50 in test [1], in test [2] and in test [3] were < 0.1 µM, < 30 µM and > 30 µM, respectively. The “PT (Prothrombin time) 2xPT” value in test [4] was <50.0 µM.

Turning to `CC(C)Nc1ncc(-c2cc(N)cc(N)c2)n(CC(=O)NCc2ccc(C(=N)N)s2)c1=O` [Example 68], the values for the IC50 in test [1], in test [2] and in test [3] were < 0.1 µM, < 30 µM and > 30 µM, respectively. Further, the “PT (Prothrombin time) 2xPT” value in test [4] was <50.0 µM.

As for `CC(C)CSc1cc(N)cc(-c2cnc(NC(C)C)c(=O)n2CC(=O)NCc2ccc(C(=N)N)cc2)c1` [Example 70, N-{4-[amino(imino)methyl]benzyl}-2-[6-[3-amino-5-(isobutylthio)phenyl]-3-(isopropylamino)-2-oxopyrazin-1 (2H)-yl]acetamide], the IC50 is < 0.1 µM in test [1], > 30 µM in test [2] and > 30 µM in test [3]. In addition, the “PT (Prothrombin time) 2xPT” value in test [4] was <50.0 µM.

For `CC[C@@H](C)NC(=O)c1cc(N)cc(-c2cnc(NC(C)C)c(=O)n2CC(=O)NCc2ccc(C(=N)N)cc2)c1` [Example 72], the IC50 in test [1] is < 0.1 µM; in test [2], > 30 µM; in test [3], < 30 µM. Moreover, in test [4], the “PT (Prothrombin time) 2xPT” value is <50.0 µM.

On to `CC(C)C[S+]([O-])c1cc(N)cc(-c2cnc(NC(C)C)c(=O)n2CC(=O)NCc2ccc(C(=N)N)cc2)c1` (stereo not shown) [Example 73, N-{4-[amino(imino)methyl]benzyl}-2-[6-[3-amino-5-(isobutylsulfinyl)phenyl]-3-(isopropylamino)-2-oxopyrazin-1 (2H)-yl]acetamide], for which the IC50 in test [1] is < 0.1 µM; in test [2], > 30 µM; in test [3], > 30 µM. Also, the “PT (Prothrombin time) 2xPT” value in test [4] was <50.0 µM.

As to `CC(C)CS(=O)(=O)c1cc(N)cc(-c2cnc(NC(C)C)c(=O)n2CC(=O)NCc2ccc(C(=N)N)cc2)c1` [Example 74, N-{4-[amino(imino)methyl]benzyl}-2-[6-[3-amino-5-(isobutylsulfonyl)phenyl]-3-(isopropylamino)-2-oxopyrazin-1 (2H)-yl]acetamide], the values for the IC50 in test [1], in test [2] and in test [3] were < 0.1 µM, > 30 µM and > 30 µM, respectively. Further, the “PT (Prothrombin time) 2xPT” value in test [4] was <50.0 µM.

As to `CC(C)Nc1ncc(-c2cc(N)cc(CCCc3ccccc3)c2)n(CC(=O)NCc2ccc(C(=N)N)cc2)c1=O` [Example 76, N-{4-[amino(imino)methyl]benzyl}-2-[6-[3-amino-5-(3-phenylpropyl)phenyl]-3-(isopropylamino)-2-oxopyrazin-1 (2H)-yl]acetamide], the IC50 in test [1] is < 0.1 µM; in test [2], > 30 µM; in test [3], > 30 µM. In test [4], the “PT (Prothrombin time) 2xPT” value was <50.0 µM.

Consider `COC(=O)c1cc(N)cc(-c2cnc(NC(C)C)c(=O)n2CC(=O)NCc2ccc(C(=N)N)c(O)c2)c1` [Example 77], for which the IC50 in test [1] is > 0.1 µM; in test [2], > 30 µM; in test [3], > 30 µM. Further, the “PT (Prothrombin time) 2xPT” value in test [4] is <50.0 µM.

As for `CC(C)Nc1ncc(-c2cc(N)cc(NC(=O)OC(C)(C)C)c2)n(CC(=O)NCc2ccc(C(=N)N)c(O)c2)c1=O` [Example 78], the IC50 in test [1] is > 0.1 µM; in test [2] it was > 30 µM; in test [3] it was > 30 µM. The “PT (Prothrombin time) 2xPT” value in test [4] is <50.0 µM.

As to `CC(C)Nc1ncc(-c2cc(N)cc(N)c2)n(CC(=O)NCc2ccc(C(=N)N)c(O)c2)c1=O` [Example 79], the IC50 in test [1] is > 0.1 µM; in test [2], > 30 µM; in test [3] it was > 30 µM. Further, in test [4], the “PT (Prothrombin time) 2xPT” value was <50.0 µM.

Turning to `CC(C)Nc1ncc(-c2cc(N)cc(/C=C/Cc3ccccc3)c2)n(CC(=O)NCc2ccc(C(=N)N)cc2)c1=O` [Example 80, N-{4-[amino(imino)methyl]benzyl}-2-[6-{3-amino-5-[(1E)-3-phenylprop-1-enyl]phenyl}-3-(isopropylamino)-2-oxopyrazin-1 (2H)-yl]acetamide], the IC50 in test [1] was < 0.1 µM; in test [2], > 30 µM; in test [3], > 30 µM. Also, the “PT (Prothrombin time) 2xPT” value in test [4] is >50.0 µM.

For `CC(C)Nc1ncc(-c2cc(N)cc(C(=O)N[C@H](C)C3CCCCC3)c2)n(CC(=O)NCc2ccc(C(=N)N)cc2)c1=O.O=C(O)C(F)(F)F` [Example 81], the results for the IC50 in test [1], in test [2] and in test [3] were < 0.1 µM, > 30 µM and < 30 µM, respectively. Moreover, the “PT (Prothrombin time) 2xPT” value in test [4] was <50.0 µM.

For the compound `CC(C)Nc1ncc(-c2cc(N)cc(C(=O)N[C@@H](C)C3CCCCC3)c2)n(CC(=O)NCc2ccc(C(=N)N)cc2)c1=O.O=C(O)C(F)(F)F` [Example 82], the values for the half-maximal inhibitory concentration (IC50) in test [1], in test [2] and in test [3] were < 0.1 µM, > 30 µM and < 30 µM, respectively. Besides, the “PT (Prothrombin time) 2xPT” value in test [4] was <50.0 µM.

As to `CC(C)Nc1ncc(-c2cc(N)cc(C(=O)N[C@@H](C(=O)O)c3ccccc3)c2)n(CC(=O)NCc2ccc(C(=N)N)cc2)c1=O` [Example 83], the IC50 in test [1] was < 0.1 µM; in test [2] it was > 30 µM; in test [3], > 30 µM. Moreover, the “PT (Prothrombin time) 2xPT” value in test [4] was <50.0 µM.

Turning to `CC(C)Nc1ncc(-c2cc(N)cc(C(=O)N[C@H](C(=O)O)c3ccccc3)c2)n(CC(=O)NCc2ccc(C(=N)N)cc2)c1=O` [Example 84], the IC50 is < 0.1 µM in test [1], > 30 µM in test [2] and > 30 µM in test [3]. Also, the “PT (Prothrombin time) 2xPT” value in test [4] was <50.0 µM.

For `CCC(C)[C@H](NC(=O)c1cc(N)cc(-c2cnc(NC(C)C)c(=O)n2CC(=O)NCc2ccc(C(=N)N)cc2)c1)C(=O)O` (stereo partly shown) [Example 85], the IC50 in test [1] was < 0.1 µM; in test [2] it was > 30 µM; in test [3] it was > 30 µM. Besides, the “PT (Prothrombin time) 2xPT” value in test [4] was <50.0 µM.

Turning to `COC(=O)[C@H](NC(=O)c1cc(N)cc(-c2cnc(NC(C)C)c(=O)n2CC(=O)NCc2ccc(C(=N)N)cc2)c1)c1ccccc1` [Example 86], the IC50 in test [1] is < 0.1 µM; in test [2], > 30 µM; in test [3], < 30 µM. For the same compound, the “PT (Prothrombin time) 2xPT” value in test [4] is <50.0 µM.

Take `COC(=O)[C@@H](NC(=O)c1cc(N)cc(-c2cnc(NC(C)C)c(=O)n2CC(=O)NCc2ccc(C(=N)N)cc2)c1)c1ccccc1` [Example 87]: the figures for the IC50 in test [1], in test [2] and in test [3] were < 0.1 µM, > 30 µM and < 30 µM, respectively. Further, the “PT (Prothrombin time) 2xPT” value in test [4] was <50.0 µM.

As for `CC(C)Nc1ncc(-c2cc(N)cc(NS(=O)(=O)c3ccc(OC(F)(F)F)cc3)c2)n(CC(=O)NCc2ccc(C(=N)N)cc2)c1=O` [Example 88], the IC50 is > 0.1 µM in test [1], > 30 µM in test [2] and > 30 µM in test [3]. Besides, the “PT (Prothrombin time) 2xPT” value in test [4] is <50.0 µM.

On to `CC(C)Nc1ncc(-c2cc(N)cc(NS(=O)(=O)c3ccccc3C(F)(F)F)c2)n(CC(=O)NCc2ccc(C(=N)N)cc2)c1=O` [Example 89], for which the IC50 was < 0.1 µM in test [1], > 30 µM in test [2] and > 30 µM in test [3]. In addition, the “PT (Prothrombin time) 2xPT” value in test [4] was <50.0 µM.

`CC(C)Nc1ncc(-c2cc(N)cc(NS(=O)(=O)c3ccc4ccccc4c3)c2)n(CC(=O)NCc2ccc(C(=N)N)cc2)c1=O` [Example 90]: the IC50 in test [1] is < 0.1 µM; in test [2] it was > 30 µM; in test [3], > 30 µM. Also, the “PT (Prothrombin time) 2xPT” value in test [4] is <50.0 µM.

Consider `CC(C)Nc1ncc(-c2cc(N)cc(NS(=O)(=O)c3cccs3)c2)n(CC(=O)NCc2ccc(C(=N)N)cc2)c1=O` [Example 91], for which the half-inhibitory concentration (IC50) was < 0.1 µM in test [1], > 30 µM in test [2] and > 30 µM in test [3]. In addition, the “PT (Prothrombin time) 2xPT” value in test [4] is <50.0 µM.

For `COc1ccc(S(=O)(=O)Nc2cc(N)cc(-c3cnc(NC(C)C)c(=O)n3CC(=O)NCc3ccc(C(=N)N)cc3)c2)cc1` [Example 92], the 50% inhibitory concentration (IC50) in test [1] is < 0.1 µM; in test [2], > 30 µM; in test [3] it was > 30 µM. Besides, the “PT (Prothrombin time) 2xPT” value in test [4] is <50.0 µM.

Take `CC(C)Nc1ncc(-c2cc(N)cc(NS(=O)(=O)c3ccc(F)cc3)c2)n(CC(=O)NCc2ccc(C(=N)N)cc2)c1=O` [Example 93]: the IC50 in test [1] was < 0.1 µM; in test [2], > 30 µM; in test [3] it was > 30 µM. Further, the “PT (Prothrombin time) 2xPT” value in test [4] is <50.0 µM.

`CC(C)Nc1ncc(-c2cc(N)cc(NS(=O)(=O)c3ccc(F)cc3F)c2)n(CC(=O)NCc2ccc(C(=N)N)cc2)c1=O` [Example 94]: the IC50 was < 0.1 µM in test [1], > 30 µM in test [2] and > 30 µM in test [3]. Also, in test [4], the “PT (Prothrombin time) 2xPT” value was <50.0 µM.
